{"source": "patent US20250120967A1", "about": "“TYROSINE KINASES INHIBITORS AND USES THEREOF” (GREAT NOVEL THERAPEUTICS BIOTECH & MEDICALS CORPORATION, priority 2023, published 2025)", "key": {"COLO 205": {"system": "COLO 205", "assay": "NCI-60 screen (SRB)", "format": "cell-based", "conditions": "Homo sapiens; COLO 205, Colon Cancer", "description": "(§1) The human tumor cell lines of the cancer screening panel are grown in RPMI 1640 medium containing 5% fetal bovine serum and 2 mM L-glutamine. For a typical screening experiment, cells are inoculated into 96 well microtiter plates in 100 μL at plating densities ranging from 5,000 to 40,000 cells/well depending on the doubling time of individual cell lines. After cell inoculation, the microtiter plates are incubated at 37° C., 5% CO2, 95% air and 100% relative humidity for 24 h prior to addition of experimental drugs. After 24 h, two plates of each cell line are fixed in situ with TCA, to represent a measurement of the cell population for each cell line at the time of drug addition (Tz). Experimental drugs are solubilized in dimethyl sulfoxide at 400-fold the desired final maximum test concentration and stored frozen prior to use. At the time of drug addition, an aliquot of frozen concentrate is thawed and diluted to twice the desired final maximum test concentration with complete medium containing 50 µg/ml gentamicin. An additional four, 10-fold or M log serial dilutions are made to provide a total of five drug concentrations plus control. Aliquots of 100 μl of these different drug dilutions are added to the appropriate microtiter wells already containing 100 μl of medium, resulting in the required final drug concentrations. Following drug addition, the plates are incubated for an additional 48 h at 37° C., 5% CO2, 95% air, and 100% relative humidity. For adherent cells, the assay is terminated by the addition of cold TCA. Cells are fixed in situ by the gentle addition of 50 μl of cold 50% (w/v) TCA (final concentration, 10% TCA) and incubated for 60 minutes at 4° C. The supernatant is discarded, and the plates are washed five times with tap water and air dried. Sulforhodamine B (SRB) solution (100 l) at 0.4% (w/v) in 1% acetic acid is added to each well, and plates are incubated for 10 minutes at room temperature. After staining, unbound dye is removed by washing five times with 1% acetic acid and the plates are air dried. Bound stain is subsequently solubilized with 10 mM trizma base, and the absorbance is read on an automated plate reader at a wavelength of 515 nm. For suspension cells, the methodology is the same except that the assay is terminated by fixing settled cells at the bottom of the wells by gently adding 50 μl of 80% TCA (final concentration, 16% TCA)."}, "MCF7": {"system": "MCF7", "assay": "NCI-60 screen (SRB)", "format": "cell-based", "conditions": "Homo sapiens; MCF7, Breast Cancer", "description": "as §1"}, "UACC-257": {"system": "UACC-257", "assay": "NCI-60 screen (SRB)", "format": "cell-based", "conditions": "Homo sapiens; UACC-257, Melanoma", "description": "as §1"}, "SR": {"system": "SR", "assay": "NCI-60 screen (SRB)", "format": "cell-based", "conditions": "Homo sapiens, Leukemia", "description": "as §1"}, "EKVX": {"system": "EKVX", "assay": "NCI-60 screen (SRB)", "format": "cell-based", "conditions": "Homo sapiens, Non-Small Cell Lung Cancer", "description": "as §1"}, "K-562": {"system": "K-562", "assay": "NCI-60 screen (SRB)", "format": "cell-based", "conditions": "Homo sapiens, K562; K-562, Leukemia", "description": "as §1"}, "HCC-2998": {"system": "HCC-2998", "assay": "NCI-60 screen (SRB)", "format": "cell-based", "conditions": "Homo sapiens; HCC-2998, Colon Cancer", "description": "as §1"}, "SK-MEL-28": {"system": "SK-MEL-28", "assay": "NCI-60 screen (SRB)", "format": "cell-based", "conditions": "Homo sapiens; SK-MEL-28, Melanoma", "description": "as §1"}, "CCRF-CEM": {"system": "CCRF-CEM", "assay": "NCI-60 screen (SRB)", "format": "cell-based", "conditions": "Homo sapiens, Leukemia", "description": "as §1"}, "MERTK (cMER)": {"target": "T1, MERTK (cMER) (Homo sapiens, UniProt Q12866)", "T1 sequence (Q12866 21-999)": "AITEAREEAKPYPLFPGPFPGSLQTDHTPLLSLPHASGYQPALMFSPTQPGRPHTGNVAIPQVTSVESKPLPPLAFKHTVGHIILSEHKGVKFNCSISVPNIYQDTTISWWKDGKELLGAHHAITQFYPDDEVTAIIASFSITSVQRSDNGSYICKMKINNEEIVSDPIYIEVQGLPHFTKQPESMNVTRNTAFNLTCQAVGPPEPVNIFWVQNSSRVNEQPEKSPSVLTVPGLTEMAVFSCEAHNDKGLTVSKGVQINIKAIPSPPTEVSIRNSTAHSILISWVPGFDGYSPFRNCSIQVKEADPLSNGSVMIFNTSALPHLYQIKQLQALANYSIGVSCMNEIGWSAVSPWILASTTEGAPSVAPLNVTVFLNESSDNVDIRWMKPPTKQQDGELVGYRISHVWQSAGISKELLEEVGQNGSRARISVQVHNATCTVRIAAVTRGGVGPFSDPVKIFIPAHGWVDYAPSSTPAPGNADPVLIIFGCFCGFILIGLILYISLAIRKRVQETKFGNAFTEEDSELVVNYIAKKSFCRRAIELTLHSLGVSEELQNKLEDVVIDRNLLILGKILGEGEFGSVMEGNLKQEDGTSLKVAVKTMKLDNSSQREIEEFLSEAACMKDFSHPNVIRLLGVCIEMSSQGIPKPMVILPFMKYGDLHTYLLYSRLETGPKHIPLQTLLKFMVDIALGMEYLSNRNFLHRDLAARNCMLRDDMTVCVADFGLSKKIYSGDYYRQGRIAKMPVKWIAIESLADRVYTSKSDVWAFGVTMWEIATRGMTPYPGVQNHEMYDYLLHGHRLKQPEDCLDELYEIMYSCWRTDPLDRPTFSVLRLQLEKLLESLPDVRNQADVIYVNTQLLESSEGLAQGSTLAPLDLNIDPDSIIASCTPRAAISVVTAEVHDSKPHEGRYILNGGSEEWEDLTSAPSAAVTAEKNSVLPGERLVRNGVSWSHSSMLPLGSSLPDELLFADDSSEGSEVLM", "assay": "Tyrosine kinase inhibition assay", "format": "biochemical", "conditions": "for inhibition at 1 µM: single concentration 1.0 μM, read-out: percent inhibition; for IC50: read-out: IC50 of compound", "description": "(§2) Tyrosine kinase inhibition assays were performed at ThermoFisher Life Technologies (Madison, WI, USA) using standard protocols (SelectScreen Biochemical Profiling Service, Thermo Fisher Scientific). ATP concentrations used were at the apparent Km. Test compounds were screened in 1% dimethylsulffoxide (DMSO) (final concentration) in the well. For 10-point titrations, 3-fold serial dilutions were conducted from the starting concentration of […]. All Peptide/Kinase Mixtures were diluted to a 2× working concentration in the appropriate Kinase Buffer. All ATP Solutions were diluted to a 4× working concentration in Kinase Buffer (50 mM HEPES pH 7.5, 0.01% BRIJ-35, 10 mM MgCl2, 1 mM EGTA). The apparent ATP Km was previously determined using a Z′-LYTE assay. The Development Reagent was diluted in Development Buffer.\n(§3) The inhibition activities of compounds were determined in biochemical assays using single concentration (1.0 μM) measurements. The results were provided as percent inhibition values."}, "MET (cMet)": {"target": "MET (cMet) (Homo sapiens, UniProt P08581)", "sequence (P08581 25-1390)": "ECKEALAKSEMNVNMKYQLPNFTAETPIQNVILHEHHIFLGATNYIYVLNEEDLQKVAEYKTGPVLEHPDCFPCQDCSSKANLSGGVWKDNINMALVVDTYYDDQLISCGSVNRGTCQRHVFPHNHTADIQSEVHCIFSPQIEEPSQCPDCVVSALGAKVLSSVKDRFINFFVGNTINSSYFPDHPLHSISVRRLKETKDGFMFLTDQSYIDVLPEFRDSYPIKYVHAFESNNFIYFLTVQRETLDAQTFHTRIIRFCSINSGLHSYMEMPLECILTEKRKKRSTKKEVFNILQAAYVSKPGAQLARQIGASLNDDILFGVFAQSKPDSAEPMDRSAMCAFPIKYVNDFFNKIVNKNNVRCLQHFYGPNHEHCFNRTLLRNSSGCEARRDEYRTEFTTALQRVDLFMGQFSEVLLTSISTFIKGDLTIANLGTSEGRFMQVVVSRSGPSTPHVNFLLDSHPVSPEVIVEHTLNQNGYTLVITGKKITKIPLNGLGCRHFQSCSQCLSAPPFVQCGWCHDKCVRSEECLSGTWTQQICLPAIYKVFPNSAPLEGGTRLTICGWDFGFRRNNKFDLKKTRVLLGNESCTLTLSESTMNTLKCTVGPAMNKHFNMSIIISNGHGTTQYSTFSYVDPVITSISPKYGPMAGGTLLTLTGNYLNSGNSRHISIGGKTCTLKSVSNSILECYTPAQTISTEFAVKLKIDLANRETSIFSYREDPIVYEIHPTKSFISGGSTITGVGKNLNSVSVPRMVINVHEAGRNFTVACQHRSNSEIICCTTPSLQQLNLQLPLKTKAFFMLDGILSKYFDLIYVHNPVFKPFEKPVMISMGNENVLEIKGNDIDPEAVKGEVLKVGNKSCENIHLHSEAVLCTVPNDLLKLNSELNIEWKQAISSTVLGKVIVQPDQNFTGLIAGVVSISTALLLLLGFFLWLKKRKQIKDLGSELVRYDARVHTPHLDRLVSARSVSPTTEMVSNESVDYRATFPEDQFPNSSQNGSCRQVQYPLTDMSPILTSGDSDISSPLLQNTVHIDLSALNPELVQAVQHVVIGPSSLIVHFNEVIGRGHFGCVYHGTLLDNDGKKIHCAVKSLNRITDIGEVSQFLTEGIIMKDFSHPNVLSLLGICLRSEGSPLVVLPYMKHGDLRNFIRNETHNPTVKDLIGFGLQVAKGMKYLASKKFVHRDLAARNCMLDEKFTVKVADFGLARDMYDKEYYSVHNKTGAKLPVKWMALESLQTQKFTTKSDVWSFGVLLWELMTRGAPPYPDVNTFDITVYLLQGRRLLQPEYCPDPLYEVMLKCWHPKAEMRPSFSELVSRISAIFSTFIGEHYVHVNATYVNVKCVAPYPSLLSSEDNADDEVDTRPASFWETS", "assay": "Tyrosine kinase inhibition assay", "format": "biochemical", "conditions": "for inhibition at 1 µM: single concentration 1.0 μM, read-out: percent inhibition; for IC50: read-out: IC50 of compound", "description": "as §2, §3"}}, "data": [{"smiles": "COc1cc2nccc(Oc3ccc(NC(=O)C4(NC(=O)c5ccc(F)cc5)CC4)cc3F)c2cc1OC", "note": "[Cbo-02, N-(1-((4-((6,7-diMethoxyquinolin-4-yl)oxy)-3-fluorophenyl)carbamoyl)cyclopropyl)-4-fluorobenzamide]", "values": [{"measurement": "GI50", "setting": "COLO 205", "value": 1750, "unit": "nM"}, {"measurement": "GI50", "setting": "MCF7", "value": 3260, "unit": "nM"}, {"measurement": "GI50", "setting": "UACC-257", "value": 2830, "unit": "nM"}, {"measurement": "GI50", "setting": "SR", "value": 3330, "unit": "nM"}, {"measurement": "GI50", "setting": "EKVX", "value": 1030, "unit": "nM"}, {"measurement": "GI50", "setting": "K-562", "value": 3050, "unit": "nM"}, {"measurement": "GI50", "setting": "HCC-2998", "value": 2500, "unit": "nM"}, {"measurement": "GI50", "setting": "SK-MEL-28", "value": 1610, "unit": "nM"}, {"measurement": "GI50", "setting": "CCRF-CEM", "value": 2240, "unit": "nM"}, {"measurement": "inhibition at 1 µM", "setting": "MERTK (cMER)", "value": 100, "unit": "%"}, {"measurement": "inhibition at 1 µM", "setting": "MET (cMet)", "value": 100, "unit": "%"}]}, {"smiles": "COc1cc2nccc(Oc3ccc(NC(=O)C4(NC(=O)c5ccc(F)cc5)CC4)cc3F)c2cc1Oc1ccc(N)cc1F", "note": "[Cbo-10]", "values": [{"measurement": "GI50", "setting": "COLO 205", "value": 931, "unit": "nM"}, {"measurement": "GI50", "setting": "MCF7", "value": 771, "unit": "nM"}, {"measurement": "GI50", "setting": "UACC-257", "value": 1720, "unit": "nM"}, {"measurement": "GI50", "setting": "SR", "value": 345, "unit": "nM"}, {"measurement": "GI50", "setting": "EKVX", "value": 488, "unit": "nM"}, {"measurement": "GI50", "setting": "K-562", "value": 1740, "unit": "nM"}, {"measurement": "GI50", "setting": "HCC-2998", "value": 6040, "unit": "nM"}, {"measurement": "GI50", "setting": "SK-MEL-28", "value": 1810, "unit": "nM"}, {"measurement": "GI50", "setting": "CCRF-CEM", "value": 436, "unit": "nM"}, {"measurement": "inhibition at 1 µM", "setting": "MERTK (cMER)", "value": 95, "unit": "%"}, {"measurement": "inhibition at 1 µM", "setting": "MET (cMet)", "value": 95, "unit": "%"}]}, {"smiles": "COc1cc2nccc(Oc3ccc(NC(=O)C4(NC(=O)c5ccc(F)cc5)CC4)cc3F)c2cc1Oc1c(F)cc(N)cc1F", "note": "[Cbo-14]", "values": [{"measurement": "inhibition at 1 µM", "setting": "MERTK (cMER)", "value": 97, "unit": "%"}, {"measurement": "inhibition at 1 µM", "setting": "MET (cMet)", "value": 97, "unit": "%"}]}, {"smiles": "COc1cc2nccc(Oc3ccc(NC(=O)C4(C(=O)Nc5ccc(F)cc5)CC4)cc3F)c2cc1Oc1ccc(N)cc1F", "note": "[Cbo-23]", "values": [{"measurement": "GI50", "setting": "COLO 205", "value": 283, "unit": "nM"}, {"measurement": "GI50", "setting": "MCF7", "value": 294, "unit": "nM"}, {"measurement": "GI50", "setting": "UACC-257", "value": 367, "unit": "nM"}, {"measurement": "GI50", "setting": "SR", "value": 93.8, "unit": "nM"}, {"measurement": "GI50", "setting": "EKVX", "value": 389, "unit": "nM"}, {"measurement": "GI50", "setting": "K-562", "value": 130, "unit": "nM"}, {"measurement": "GI50", "setting": "HCC-2998", "value": 2280, "unit": "nM"}, {"measurement": "GI50", "setting": "SK-MEL-28", "value": 463, "unit": "nM"}, {"measurement": "GI50", "setting": "CCRF-CEM", "value": 553, "unit": "nM"}, {"measurement": "IC50", "setting": "MERTK (cMER)", "value": 3.72, "unit": "nM"}, {"measurement": "inhibition at 1 µM", "setting": "MERTK (cMER)", "value": 98, "unit": "%"}, {"measurement": "IC50", "setting": "MET (cMet)", "value": 35.2, "unit": "nM"}, {"measurement": "inhibition at 1 µM", "setting": "MET (cMet)", "value": 98, "unit": "%"}]}, {"smiles": "CNC(=O)c1cc2c(Oc3ccc(NC(=O)C4(C(=O)Nc5ccc(F)cc5)CC4)cc3)ccnc2cc1OC", "note": "[Zanzalintinib, reference compound]", "values": [{"measurement": "IC50", "setting": "MERTK (cMER)", "value": 6.96, "unit": "nM"}, {"measurement": "IC50", "setting": "MET (cMet)", "value": 4.26, "unit": "nM"}]}]}
